# Test results published in PubChem BioAssay (NCI).
#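 1) Cells in 96-well plates. 2) Compound, 48 h, 5 concentrations. 3) Linear interpolation between surrounding doses. 4) Unreached endpoint = highest concentration. GI50 marks 50% less growth. At the TGI there is no net growth.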
# Assays:
# Assay in all cases: NCI anticancer screen, dose series, 48 h
# [1] = system: SNB-75 CNS
# [2] = system: NCI-H522 lung
# [3] = system: SK-MEL-2 melanoma
# [4] = system: UACC-257 melanoma
# [5] = system: T-47D breast
# [6] = system: SR leukemia
# [7] = system: NCI-H460 lung
# [8] = system: MDA-MB-231 breast
# [9] = system: HL-60(TB) leukemia
# [10] = system: ACHN renal
# [11] = system: MOLT-4 leukemia
# [12] = system: HS 578T breast
# [13] = system: BT-549 breast
# [14] = system: U251 CNS
# [15] = system: KM12 colon
# [16] = system: SF-539 CNS
# [17] = system: MCF7 breast
# [18] = system: CAKI-1 renal
# [19] = system: RPMI-8226 leukemia
# [20] = system: 786-0 renal
# [21] = system: K-562 leukemia
# [22] = system: RXF 393 renal
# [23] = system: UACC-62 melanoma
# [24] = system: A549 NSCLC
# [25] = system: SNB-19 CNS
# [26] = system: CCRF-CEM leukemia
# [27] = system: EKVX NSCLC
# [28] = system: MDA-MB-435
# [29] = system: SW-620 colon
# [30] = system: HCT-116 colon
# [31] = system: TK-10 renal
# [32] = system: MALME-3M melanoma
# [33] = system: SF-268 CNS
# [34] = system: LOX IMVI melanoma
# [35] = system: OVCAR-4 ovarian
# [36] = system: NCI-H23 lung
# [37] = system: COLO 205 colon
# [38] = system: PC-3 prostate
# [39] = system: SK-OV-3 ovarian
# [40] = system: SK-MEL-28 melanoma
# [41] = system: HCC-2998 colon
# [42] = system: M14 melanoma
# [43] = system: SK-MEL-5 melanoma
# [44] = system: OVCAR-8 ovarian
# [45] = system: OVCAR-5 ovarian
# [46] = system: HCT-15 colon
# [47] = system: OVCAR-3 ovarian
# [48] = system: HOP-62 NSCLC
# [49] = system: SF-295 CNS
# [50] = system: SN12C renal
# [51] = system: UO-31 renal
# [52] = system: NCI/ADR-RES ovarian
# [53] = system: DU-145 prostate
# [54] = system: HT29 colon
# [55] = system: IGROV1 ovarian
# [56] = system: NCI-H226 lung
# [57] = system: A498 renal
# [58] = system: HOP-92 NSCLC
smiles,measurement,setting,value
N#CC1c2ccccc2C=CN1C(=O)N(c1ccccc1)c1ccccc1 (stereo unspecified),GI50,[1],6.3 µM
same,TGI,[1],21 µM
same,GI50,[2],1.78 µM
same,TGI,[2],3.33 µM
same,GI50,[3],3.97 µM
same,TGI,[3],13.6 µM
same,GI50,[4],2.29 µM
same,TGI,[4],6.2 µM
same,GI50,[5],1.87 µM
same,TGI,[5],4.45 µM
same,GI50,[6],2.14 µM
same,TGI,[6],6.32 µM
same,GI50,[7],15.9 µM
same,TGI,[7],34.2 µM
same,GI50,[8],2.94 µM
same,TGI,[8],8.35 µM
same,GI50,[9],2.11 µM
same,TGI,[9],6.24 µM
same,GI50,[10],1.79 µM
same,TGI,[10],3.3 µM
same,GI50,[11],2.44 µM
same,TGI,[11],7.45 µM
same,GI50,[12],3.14 µM
same,TGI,[12],13.7 µM
same,GI50,[13],8.68 µM
same,TGI,[13],21.2 µM
same,GI50,[14],6.59 µM
same,TGI,[14],19.3 µM
same,GI50,[15],6.38 µM
same,TGI,[15],19.3 µM
same,GI50,[16],4.69 µM
same,TGI,[16],17.9 µM
same,GI50,[17],2.9 µM
same,TGI,[17],9.56 µM
same,GI50,[18],1.64 µM
same,TGI,[18],3.63 µM
same,GI50,[19],2.56 µM
same,TGI,[19],6.87 µM
same,GI50,[20],4.32 µM
same,TGI,[20],15.2 µM
same,GI50,[21],3.06 µM
same,TGI,[21],> 100 µM
same,GI50,[22],1.73 µM
same,TGI,[22],3.2 µM
same,GI50,[23],2.13 µM
same,TGI,[23],5.57 µM
same,GI50,[24],19.7 µM
same,TGI,[24],51.8 µM
same,GI50,[25],13.8 µM
same,TGI,[25],26.8 µM
same,GI50,[26],2.97 µM
same,TGI,[26],8.99 µM
same,GI50,[27],5.7 µM
same,TGI,[27],18.9 µM
same,GI50,[28],1.74 µM
same,TGI,[28],3.81 µM
same,GI50,[29],2.27 µM
same,TGI,[29],5.3 µM
same,GI50,[30],2.05 µM
same,TGI,[30],4.35 µM
same,GI50,[31],1.89 µM
same,TGI,[31],3.58 µM
same,GI50,[32],1.61 µM
same,TGI,[32],3.55 µM
same,GI50,[33],4.31 µM
same,TGI,[33],15.4 µM
same,GI50,[34],2.04 µM
same,TGI,[34],4.61 µM
same,GI50,[35],2.99 µM
same,TGI,[35],8.29 µM
same,GI50,[36],4.09 µM
same,TGI,[36],19.3 µM
same,GI50,[37],1.83 µM
same,TGI,[37],3.43 µM
same,GI50,[38],9.82 µM
same,TGI,[38],25.3 µM
same,GI50,[39],16.5 µM
same,TGI,[39],31.3 µM
same,GI50,[40],2.43 µM
same,TGI,[40],5.84 µM
same,GI50,[41],11.1 µM
same,TGI,[41],23.9 µM
same,GI50,[42],2.19 µM
same,TGI,[42],5.19 µM
same,GI50,[43],4.03 µM
same,TGI,[43],14.8 µM
same,GI50,[44],13.3 µM
same,TGI,[44],54.1 µM
same,GI50,[45],7.45 µM
same,TGI,[45],24.3 µM
same,GI50,[46],2.51 µM
same,TGI,[46],6.93 µM
same,GI50,[47],1.76 µM
same,TGI,[47],3.18 µM
same,GI50,[48],13.6 µM
same,TGI,[48],26.7 µM
same,GI50,[49],12.6 µM
same,TGI,[49],25.2 µM
same,GI50,[50],3 µM
same,TGI,[50],10.8 µM
same,GI50,[51],1.49 µM
same,TGI,[51],3.12 µM
same,GI50,[52],5.52 µM
same,TGI,[52],34 µM
same,GI50,[53],3.04 µM
same,TGI,[53],9.36 µM
same,GI50,[54],3.56 µM
same,TGI,[54],11.5 µM
same,GI50,[55],1.76 µM
same,TGI,[55],3.66 µM
same,GI50,[56],3.76 µM
same,TGI,[56],15.2 µM
same,GI50,[57],7.14 µM
same,TGI,[57],24.4 µM
same,GI50,[58],2 µM
same,TGI,[58],4.36 µM
